According to ChEMBL document CHEMBL1155508, “Discovery of TRPV1 antagonist ABT-116” (Bioorg Med Chem Lett, 2010):
≈ marks a conversion by molar mass, not a printed value. One block for each compound: values may come before it.

What was measured:
[1] = target: T1, Transient receptor potential cation channel subfamily V member 1 (Homo sapiens, UniProt Q8NER1); assay: Antagonist activity at human TRPV1; type: functional
Rattus norvegicus [2] = assay: Antiinflammatory activity against complete Freund's adjuvant-induced thermal hyperalgesia in po dosed rat; type: functional
[3] = Ratio of drug level in brain to plasma in rat at 10 µmol/kg, po; conditions: read-out: BPR
[4] = target: T1, Transient receptor potential cation channel subfamily V member 1; assay: Antagonist activity at human TRPV1 expressed in HEK293 cells assessed as inhibition of capsaicin-induced effect by capsaicin
[5] = target: Transient receptor potential cation channel subfamily V member 1 (Rattus norvegicus, UniProt O35433); assay: Antagonist activity at rat TRPV1 assessed as inhibition of capsaicin-induced effect; type: functional
Rattus norvegicus [6] = assay: Antiinflammatory activity in rat post operative pain model assessed as reduction in pain in rat at 100 umol/kg, po single dose; parameters: scale not given: the % may be the effect or the level left
[7] = Solubility in lipid; type: physicochemical
[8] = target: T1, Transient receptor potential cation channel subfamily V member 1; assay: Antagonist activity at human TRPV1 expressed in HEK293 cells assessed as inhibition of N-arachidonoyl-dopamine-induced effect; type: functional, cell-based
Rattus norvegicus [9] = assay: Toxicity in rat assessed as increase of body temperature at 100 umol/kg, po after 1 hr; type: organism-based; conditions: in vivo
Rattus norvegicus [10] = assay: Antiinflammatory activity in rat osteoarthritis model assessed as reduction of pain in rat at 10 umol/kg, po bid measured after 12 days; type: functional; parameters: scale not given: the % may be the effect or the level left
Rattus norvegicus [11] = assay: Antiinflammatory activity in rat osteoarthritis model assessed as reduction of pain in rat at 10 umol/kg, po single dose; parameters: scale not given: the % may be the effect or the level left
[12] = Half life in rat at 10 µmol/kg, po; conditions: in vivo
[13] = Cmax in rat at 10 µmol/kg, po; conditions: in vivo
Rattus norvegicus [14] = assay: Antiinflammatory activity in rat osteoarthritis model assessed as inhibition of thermal hyperalgesia in po dosed rat; type: functional
Rattus norvegicus [15] = assay: Volume of distribution at steady state in rat at 10 µmol/kg, po; conditions: in vivo
CYP3A4 = CYP3A4 (Homo sapiens, UniProt P08684); assay: Inhibition of CYP3A4 assessed as midazolam oxidation at 10 uM; type: ADME; conditions: probe midazolam
[16] = Oral bioavailability in rat at 10 µmol/kg; conditions: in vivo
Rattus norvegicus [17] = assay: Antiinflammatory activity against carrageenan-induced thermal hyperalgesia in po dosed rat; type: functional
[18] = Aqueous solubility of the compound; type: physicochemical
Rattus norvegicus [19] = assay: Plasma clearance in rat at 10 µmol/kg, po; conditions: in vivo
[20] = Terminal phase volume of distribution at steady state in iv dosed rat; type: ADME, organism-based; conditions: in vivo, read-out: Vbeta
Cytochrome P450 3A4 = Cytochrome P450 3A4 (Homo sapiens, UniProt P08684); assay: Inhibition of CYP3A4; type: ADME; conditions: TDE = time-dependent effect
[21] = Genotoxicity in Salmonella Typhimurium by Ames test; type: toxicity; conditions: salmonella enterica subsp. enterica serovar typhimurium
[22] = Solubility in PEG-400; type: physicochemical
[23] = Plasma clearance in iv dosed rat; type: ADME, organism-based

T1 sequence (Q8NER1 whole entry): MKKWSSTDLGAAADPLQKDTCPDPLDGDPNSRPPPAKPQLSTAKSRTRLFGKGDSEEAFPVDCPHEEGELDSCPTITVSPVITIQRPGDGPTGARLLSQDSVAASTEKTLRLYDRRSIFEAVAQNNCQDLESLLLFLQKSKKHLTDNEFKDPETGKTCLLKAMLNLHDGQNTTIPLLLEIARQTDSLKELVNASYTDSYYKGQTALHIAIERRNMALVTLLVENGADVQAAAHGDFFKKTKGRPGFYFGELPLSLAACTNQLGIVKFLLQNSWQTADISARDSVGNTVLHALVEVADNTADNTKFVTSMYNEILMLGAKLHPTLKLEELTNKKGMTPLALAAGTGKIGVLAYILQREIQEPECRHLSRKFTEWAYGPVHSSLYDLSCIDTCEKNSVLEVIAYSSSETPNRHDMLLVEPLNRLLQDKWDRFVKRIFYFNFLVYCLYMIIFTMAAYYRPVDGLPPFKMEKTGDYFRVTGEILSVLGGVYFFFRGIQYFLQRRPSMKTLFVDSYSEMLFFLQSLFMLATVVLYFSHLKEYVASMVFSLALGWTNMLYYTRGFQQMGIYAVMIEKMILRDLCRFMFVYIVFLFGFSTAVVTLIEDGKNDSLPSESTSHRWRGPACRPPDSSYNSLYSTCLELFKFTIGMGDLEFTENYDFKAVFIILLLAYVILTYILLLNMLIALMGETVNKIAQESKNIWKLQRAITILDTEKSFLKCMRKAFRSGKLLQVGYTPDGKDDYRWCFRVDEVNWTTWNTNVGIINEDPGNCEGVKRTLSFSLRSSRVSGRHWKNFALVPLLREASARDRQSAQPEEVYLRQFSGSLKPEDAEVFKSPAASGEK
Sequence of CYP3A4 (P08684 whole entry): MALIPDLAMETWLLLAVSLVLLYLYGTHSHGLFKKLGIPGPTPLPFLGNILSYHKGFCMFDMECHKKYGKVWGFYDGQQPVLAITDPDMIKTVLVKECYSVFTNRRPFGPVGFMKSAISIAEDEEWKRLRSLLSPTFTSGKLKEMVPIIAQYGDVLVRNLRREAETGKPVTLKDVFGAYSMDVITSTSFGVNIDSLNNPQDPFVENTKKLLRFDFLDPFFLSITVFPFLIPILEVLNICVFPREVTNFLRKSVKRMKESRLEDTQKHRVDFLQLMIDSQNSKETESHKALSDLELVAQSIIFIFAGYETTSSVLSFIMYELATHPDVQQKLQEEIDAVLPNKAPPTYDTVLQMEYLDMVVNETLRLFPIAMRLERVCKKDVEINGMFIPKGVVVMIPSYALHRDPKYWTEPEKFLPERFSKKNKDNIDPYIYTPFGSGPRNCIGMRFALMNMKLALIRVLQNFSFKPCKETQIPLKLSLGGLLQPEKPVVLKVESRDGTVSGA
Sequence of Cytochrome P450 3A4 (P08684 whole entry): as above
Sequence of Transient receptor potential cation channel subfamily V member 1 (Rattus norvegicus, UniProt O35433) (O35433 whole entry): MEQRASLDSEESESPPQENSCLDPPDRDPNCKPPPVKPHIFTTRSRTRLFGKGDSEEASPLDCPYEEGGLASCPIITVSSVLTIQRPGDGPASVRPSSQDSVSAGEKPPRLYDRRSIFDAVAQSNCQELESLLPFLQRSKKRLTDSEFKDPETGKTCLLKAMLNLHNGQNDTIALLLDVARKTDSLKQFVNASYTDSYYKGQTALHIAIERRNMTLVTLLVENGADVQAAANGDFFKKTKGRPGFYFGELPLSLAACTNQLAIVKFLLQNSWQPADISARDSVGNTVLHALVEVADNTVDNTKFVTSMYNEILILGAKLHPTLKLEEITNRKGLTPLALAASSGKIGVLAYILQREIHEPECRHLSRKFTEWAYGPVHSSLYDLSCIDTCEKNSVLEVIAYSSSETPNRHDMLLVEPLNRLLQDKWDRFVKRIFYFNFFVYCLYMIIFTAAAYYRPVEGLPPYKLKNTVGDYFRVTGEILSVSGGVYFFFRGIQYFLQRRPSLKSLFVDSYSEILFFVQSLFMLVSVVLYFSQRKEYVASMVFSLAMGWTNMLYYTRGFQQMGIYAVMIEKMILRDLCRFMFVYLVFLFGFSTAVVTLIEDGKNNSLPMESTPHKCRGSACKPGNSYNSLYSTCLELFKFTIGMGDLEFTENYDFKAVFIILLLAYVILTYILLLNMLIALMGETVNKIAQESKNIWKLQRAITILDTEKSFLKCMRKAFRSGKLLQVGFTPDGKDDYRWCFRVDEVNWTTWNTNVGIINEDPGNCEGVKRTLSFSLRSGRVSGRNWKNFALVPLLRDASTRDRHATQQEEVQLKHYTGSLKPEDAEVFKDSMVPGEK

SMILES: O=C(NCc1ccc(C(F)(F)F)cc1CCc1ccccc1)Nc1cccc2[nH]ncc12
IC50 [1]: 8 nM | ED50 (Rattus norvegicus [2]): 30 µmol/kg

SMILES: O=C(NCc1ccc(C(F)(F)F)cc1Oc1ccccc1)Nc1cccc2[nH]ncc12
IC50 [1]: 9 nM | ED50 (Rattus norvegicus [2]): 22 µmol/kg

SMILES: COCCCc1cc(C(F)(F)F)ccc1CNC(=O)Nc1cccc2[nH]ncc12
IC50 [1]: 8 nM

SMILES: CCn1ncc2c(NC(=O)NCc3ccc(C(F)(F)F)cc3CCC(C)(C)C)cccc21
IC50 [4]: 53 nM

SMILES: CC(C)n1ncc2c(NC(=O)NCc3ccc(C(F)(F)F)cc3CCC(C)(C)C)cccc21
IC50 [4]: 69 nM

SMILES: Cn1ncc2c(NC(=O)NCc3ccc(C(F)(F)F)cc3CCC(C)(C)C)cccc21
IC50 [5]: 277 nM | Kp [3]: 0.32 | Activity (Rattus norvegicus [6]): 45% | solubility [7]: > 67 µg/mL | IC50 [8]: 15 nM | T (Rattus norvegicus [9]): 0.9 °C | Activity (Rattus norvegicus [10]): 67% | Activity (Rattus norvegicus [11]): 20% | half-life [12]: 3.1 h | Cmax [13]: 140 ng/mL | ED50 (Rattus norvegicus [14]): 66 µmol/kg | Vdss (Rattus norvegicus [15]): 3.4 L/kg | inhibition at 10 µM (CYP3A4): 10% | bioavailability [16]: 58% | ED50 (Rattus norvegicus [17]): 25 µmol/kg | solubility [18]: < 0.01 µg/mL | clearance (Rattus norvegicus [19]): 13.3 mL/min/kg | IC50 [4]: 7 nM

SMILES: O=C(NCc1ccc(C(F)(F)F)nc1Oc1ccccc1)Nc1cccc2[nH]ncc12
IC50 [1]: 9 nM | ED50 (Rattus norvegicus [2]): 30 µmol/kg

SMILES: CC(C)(F)CCc1cc(C(F)(F)F)ccc1CNC(=O)Nc1cccc2[nH]ncc12
IC50 [1]: 6 nM | ED50 (Rattus norvegicus [2]): 58 µmol/kg

SMILES: CC(C)(C)CCc1cc(C(F)(F)F)ccc1CNC(=O)Nc1cccc2[nH]ncc12
Vd [20]: 5.4 L/kg | Kp [3]: 0.45 | inhibition (INH) (Cytochrome P450 3A4): tde | IC50 [1]: 4.3 nM | ED50 (Rattus norvegicus [2]): 15 µmol/kg | half-life [12]: 4.3 h | ED50 (Rattus norvegicus [14]): 71 µmol/kg | Activity [21]: Non-toxic | solubility [22]: > 100 µg/mL | inhibition at 10 µM (CYP3A4): 86% | bioavailability [16]: 35% | ED50 (Rattus norvegicus [17]): 7 µmol/kg | solubility [18]: 0.42 µg/mL (≈ 1 µM) | clearance [23]: 20 mL/min/kg

SMILES: CC(C)(C)c1ccc2c(c1)CC[C@H]2NC(=O)Nc1cccc2[nH]ncc12 [ABT-102]
Kp [3]: 0.32

Further lines, with some results ahead:

IC50 [1]: 12 nM
SMILES: O=C(NCc1ccc(C(F)(F)F)nc1N1CCOCC1)Nc1cccc2[nH]ncc12
ED50 (Rattus norvegicus [2]): 33 µmol/kg

IC50 [1]: 125 nM
SMILES: Cc1ccc(CNC(=O)Nc2cccc3[nH]ncc23)c(N2CCOCC2)n1

IC50 [1]: 3.5 nM
SMILES: O=C(NCc1ccc(C(F)(F)F)nc1N1CCCCC1)Nc1cccc2[nH]ncc12
ED50 (Rattus norvegicus [2]): 30 µmol/kg

IC50 [1]: 16 nM
SMILES: Cc1ccc(CNC(=O)Nc2cccc3[nH]ncc23)c(N2CCCCC2)n1
ED50 (Rattus norvegicus [2]): 53 µmol/kg

IC50 [1]: 5 nM
SMILES: CC(C)(C)CCc1nc(C(F)(F)F)ccc1CNC(=O)Nc1cccc2[nH]ncc12
ED50 (Rattus norvegicus [2]): 100 µmol/kg

Kp [3]: 0.02 | IC50 [1]: 6 nM
SMILES: CC(C)(C)COc1nc(C(F)(F)F)ccc1CNC(=O)Nc1cccc2[nH]ncc12
ED50 (Rattus norvegicus [2]): > 100 µmol/kg

IC50 [1]: 184 nM
SMILES: O=C(NCc1ccc(C(F)(F)F)nc1)Nc1cccc2[nH]ncc12
ED50 (Rattus norvegicus [2]): 81 µmol/kg

IC50 [1]: 18 nM
SMILES: COCCOc1nc(C(F)(F)F)ccc1CNC(=O)Nc1cccc2[nH]ncc12

IC50 [1]: 12 nM
SMILES: COCCCc1nc(C(F)(F)F)ccc1CNC(=O)Nc1cccc2[nH]ncc12
ED50 (Rattus norvegicus [2]): > 30 µmol/kg

IC50 [1]: 9 nM
SMILES: CC(C)c1cc(C(F)(F)F)ccc1CNC(=O)Nc1cccc2[nH]ncc12
ED50 (Rattus norvegicus [2]): 14 µmol/kg

IC50 [1]: 14 nM
SMILES: O=C(NCc1ccc(-c2ccccc2)nc1N1CCCCC1)Nc1cccc2[nH]ncc12
ED50 (Rattus norvegicus [2]): 37 µmol/kg
